Source: the supplement of paper PMC10307832

Legend:
Test in all cases: relative viability (nuclei count vs DMSO), 5 days (fraction); higher = more cells survive
NCI-H1563 = system: NCI-H1563
How it was run: (§1)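 Cells from lung cancer lines were seeded into 1536-well plates and, one day later, dosed by pin tool. Treatments were either a single drug or a fixed dose of an anchor drug with five library-drug doses (not always all listed) in √10 steps. After 5 days, nuclei were stained in a one-step fixation (final 0.05% Triton X-100, 1% formaldehyde, 1 ug/ml Hoechst) and counted on 4× images, and relative viability is the treated-to-vehicle nuclei ratio, as the median of duplicate plates.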

NCI-H2126 = system: NCI-H2126
How it was run: as §1

HCC-78 = system: HCC-78
How it was run: as §1

LXF-289 = system: LXF-289
How it was run: as §1

HCC-827 = system: HCC-827
How it was run: as §1

ChaGo-K-1 = system: ChaGo-K-1
How it was run: as §1

NCI-H23 = system: NCI-H23
How it was run: as §1

NCI-H322M = system: NCI-H322M
How it was run: as §1

NCI-H2085 = system: NCI-H2085
How it was run: as §1

LCLC-103H = system: LCLC-103H
How it was run: as §1

NCI-H3122 = system: NCI-H3122
How it was run: as §1

RERF-LC-KJ = system: RERF-LC-KJ
How it was run: as §1

EMC-BAC-2 = system: EMC-BAC-2
How it was run: as §1

LOU-NH91 = system: LOU-NH91
How it was run: as §1

NCI-H1666 = system: NCI-H1666
How it was run: as §1

NCI-H1975 = system: NCI-H1975
How it was run: as §1

EPLC-272H = system: EPLC-272H
How it was run: as §1

LU99A = system: LU99A
How it was run: as §1

LK-2 = system: LK-2
How it was run: as §1

SK-LU-1 = system: SK-LU-1
How it was run: as §1

SW 1573 = system: SW 1573
How it was run: as §1

NCI-H2405 = system: NCI-H2405
How it was run: as §1

CC1(C)CCC(c2ccc(Cl)cc2)=C(CN2CCN(c3ccc(C(=O)NS(=O)(=O)c4ccc(N[C@H](CCN5CCOCC5)CSc5ccccc5)c(S(=O)(=O)C(F)(F)F)c4)cc3)CC2)C1 [Navitoclax] + C[C@@H](Oc1cc(-c2cnn(C3CCNCC3)c2)cnc1N)c1c(Cl)ccc(F)c1Cl [Crizotinib] (partner 1 µM)
relative viability (NCI-H1563; first compound 0.005 µM): 0.908 | relative viability (NCI-H1563; first compound 0.01581 µM): 0.92 | relative viability (NCI-H1563; first compound 0.05 µM): 0.897 | relative viability (NCI-H1563; first compound 0.1581 µM): 0.808 | relative viability (NCI-H1563; first compound 0.5 µM): 1.12 | relative viability (NCI-H2126; first compound 0.005 µM): 1.04 | relative viability (NCI-H2126; first compound 0.01581 µM): 1.05 | relative viability (NCI-H2126; first compound 0.05 µM): 1.07 | relative viability (NCI-H2126; first compound 0.1581 µM): 1.01 | relative viability (NCI-H2126; first compound 0.5 µM): 0.972 | relative viability (HCC-78; first compound 0.005 µM): 0.368 | relative viability (HCC-78; first compound 0.01581 µM): 0.376 | relative viability (HCC-78; first compound 0.1581 µM): 0.345 | relative viability (HCC-78; first compound 0.5 µM): 0.322 | relative viability (LXF-289; first compound 0.005 µM): 0.736 | relative viability (LXF-289; first compound 0.01581 µM): 0.836 | relative viability (LXF-289; first compound 0.05 µM): 0.787 | relative viability (LXF-289; first compound 0.1581 µM): 0.797 | relative viability (LXF-289; first compound 0.5 µM): 0.794 | relative viability (HCC-827; first compound 0.005 µM): 0.96 | relative viability (HCC-827; first compound 0.01581 µM): 0.962 | relative viability (HCC-827; first compound 0.05 µM): 0.966 | relative viability (HCC-827; first compound 0.1581 µM): 0.958 | relative viability (HCC-827; first compound 0.5 µM): 0.935 | relative viability (ChaGo-K-1; first compound 0.005 µM): 1.1 | relative viability (ChaGo-K-1; first compound 0.01581 µM): 1.11 | relative viability (ChaGo-K-1; first compound 0.05 µM): 0.601 | relative viability (ChaGo-K-1; first compound 0.1581 µM): 1.1 | relative viability (ChaGo-K-1; first compound 0.5 µM): 1.19 | relative viability (NCI-H23; first compound 0.005 µM): 0.519 | relative viability (NCI-H23; first compound 0.01581 µM): 0.494 | relative viability (NCI-H23; first compound 0.05 µM): 0.516 | relative viability (NCI-H23; first compound 0.1581 µM): 0.516 | relative viability (NCI-H23; first compound 0.5 µM): 0.545 | relative viability (NCI-H322M; first compound 0.005 µM): 0.885 | relative viability (NCI-H322M; first compound 0.01581 µM): 0.954 | relative viability (NCI-H322M; first compound 0.05 µM): 0.839 | relative viability (NCI-H322M; first compound 0.1581 µM): 0.858 | relative viability (NCI-H322M; first compound 0.5 µM): 0.92 | relative viability (NCI-H2085; first compound 0.005 µM): 0.862 | relative viability (NCI-H2085; first compound 0.01581 µM): 0.838 | relative viability (NCI-H2085; first compound 0.05 µM): 0.861 | relative viability (NCI-H2085; first compound 0.1581 µM): 0.822 | relative viability (NCI-H2085; first compound 0.5 µM): 0.909 | relative viability (LCLC-103H; first compound 0.005 µM): 1.05 | relative viability (LCLC-103H; first compound 0.01581 µM): 0.979 | relative viability (LCLC-103H; first compound 0.05 µM): 0.951 | relative viability (LCLC-103H; first compound 0.1581 µM): 1.12 | relative viability (LCLC-103H; first compound 0.5 µM): 0.976 | relative viability (NCI-H3122; first compound 0.005 µM): 0.254 | relative viability (NCI-H3122; first compound 0.01581 µM): 0.308 | relative viability (NCI-H3122; first compound 0.05 µM): 0.244 | relative viability (NCI-H3122; first compound 0.1581 µM): 0.306 | relative viability (NCI-H3122; first compound 0.5 µM): 0.292 | relative viability (RERF-LC-KJ; first compound 0.005 µM): 0.825 | relative viability (RERF-LC-KJ; first compound 0.01581 µM): 0.712 | relative viability (RERF-LC-KJ; first compound 0.05 µM): 0.789 | relative viability (RERF-LC-KJ; first compound 0.1581 µM): 0.796 | relative viability (RERF-LC-KJ; first compound 0.5 µM): 0.833 | relative viability (EMC-BAC-2; first compound 0.005 µM): 0.716 | relative viability (EMC-BAC-2; first compound 0.01581 µM): 0.689 | relative viability (EMC-BAC-2; first compound 0.05 µM): 0.743 | relative viability (EMC-BAC-2; first compound 0.1581 µM): 0.703 | relative viability (EMC-BAC-2; first compound 0.5 µM): 0.701 | relative viability (LOU-NH91; first compound 0.005 µM): 0.766 | relative viability (LOU-NH91; first compound 0.01581 µM): 0.742 | relative viability (LOU-NH91; first compound 0.05 µM): 0.807 | relative viability (LOU-NH91; first compound 0.1581 µM): 0.731 | relative viability (LOU-NH91; first compound 0.5 µM): 0.711 | relative viability (NCI-H1666; first compound 0.005 µM): 0.991 | relative viability (NCI-H1666; first compound 0.01581 µM): 1.08 | relative viability (NCI-H1666; first compound 0.05 µM): 1.03 | relative viability (NCI-H1666; first compound 0.1581 µM): 0.879 | relative viability (NCI-H1666; first compound 0.5 µM): 0.975 | relative viability (NCI-H1975; first compound 0.005 µM): 0.836 | relative viability (NCI-H1975; first compound 0.01581 µM): 1.07 | relative viability (NCI-H1975; first compound 0.05 µM): 1.12 | relative viability (NCI-H1975; first compound 0.1581 µM): 0.921 | relative viability (NCI-H1975; first compound 0.5 µM): 0.887 | relative viability (EPLC-272H; first compound 0.005 µM): 1.37 | relative viability (EPLC-272H; first compound 0.1581 µM): 0.99 | relative viability (EPLC-272H; first compound 0.5 µM): 1.08 | relative viability (LU99A; first compound 0.005 µM): 0.549 | relative viability (LU99A; first compound 0.01581 µM): 0.691 | relative viability (LU99A; first compound 0.05 µM): 0.39 | relative viability (LU99A; first compound 0.1581 µM): 0.588 | relative viability (LU99A; first compound 0.5 µM): 0.638 | relative viability (LK-2; first compound 0.005 µM): 0.226 | relative viability (LK-2; first compound 0.01581 µM): 0.21 | relative viability (LK-2; first compound 0.05 µM): 0.246 | relative viability (LK-2; first compound 0.1581 µM): 0.191 | relative viability (LK-2; first compound 0.5 µM): 0.263 | relative viability (SK-LU-1; first compound 0.005 µM): 0.846 | relative viability (SK-LU-1; first compound 0.01581 µM): 0.975 | relative viability (SK-LU-1; first compound 0.05 µM): 1.14 | relative viability (SK-LU-1; first compound 0.1581 µM): 0.894 | relative viability (SK-LU-1; first compound 0.5 µM): 0.834 | relative viability (SW 1573; first compound 0.005 µM): 0.716 | relative viability (SW 1573; first compound 0.01581 µM): 0.794 | relative viability (SW 1573; first compound 0.05 µM): 0.674 | relative viability (SW 1573; first compound 0.1581 µM): 0.687 | relative viability (SW 1573; first compound 0.5 µM): 0.981 | relative viability (NCI-H2405; first compound 0.005 µM): 0.788 | relative viability (NCI-H2405; first compound 0.01581 µM): 0.948 | relative viability (NCI-H2405; first compound 0.05 µM): 0.824 | relative viability (NCI-H2405; first compound 0.1581 µM): 0.838 | relative viability (NCI-H2405; first compound 0.5 µM): 0.794
